In patent US9241976B2, “Use of HDL-related molecules to treat and prevent proinflammatory conditions” (THE REGENTS OF THE UNIVERSITY OF CALIFORNIA, priority 2011, dated 2016):

Test system: p70s6 kinase
Assay: Insulin-stimulated phosphorylation of S6 kinase in OV2008 cells, Western blot
Assay type: cell-based, human
Details: 10 μg/ml, insulin 200 nM
Protocol: FIGS. 10A-10B. Effect of L-4F on the insulin-stimulated activation of downstream signaling molecules in OV2008 cells. After an overnight starvation, OV2008 cells were treated with L-4F (10 μg/ml) for 1 h, and insulin was added at a final concentration of 200 nM. Cell lysates were collected at various time points and subjected to Western blot analysis. FIG. 10A, L-4F inhibits insulin-stimulated phosphorylation of p70s6 kinase and subsequent HIF-1α expression in OV2008 cells. FIG. 10B, effect of L-4F on insulinstimulated phosphorylation of ERK1/2 and Akt in OV2008 cells.
Western blot analyses were performed as described previously (Gao et al., 2011). In brief, cell lysates were collected in a lysis buffer containing 0.1 MNaCl, 5 mM EDTA, 50 μM sodium orthovanadate, 1% Triton X-100, and protease inhibitor tablet (Roche Diagnostics, Indianapolis, Ind.) in 50 mM Tris buffer, pH 7.5, loaded onto 4 to 12% Bis-Tris gel (Invitrogen), transferred to polyvinylidene difluoride membrane, and incubated with the appropriate antibodies. […]

## Ac-DWFKAFYDKVAEKFKEAF-NH2 [L-4F, Ac-D-W-F-K-A-F-Y-D-K-V-A-E-K-F-K-E-A-F-NH2]
  insulin-stimulated phosphorylation of S6 kinase: prevented phosphorylation
